Source: US10799442B2, “Compounds useful in the treatment and/or care of the skin, hair, nails, and/or mucous membranes” (LUBRIZOL ADVANCED MATERIALS, INC., priority 2015, dated 2020)

Columns and labels:
Keratin 10 [1] = assay: Keratins expression profile in HEKa with 1 mM CaCl2, Real Time PCR Arrays (Keratin 10); format: cell-based, Human; settings: Keratin 10 mRNA, 48 hours
Method: The candidate compound is assayed for its ability to recover the basal keratinocyte state. The keratinocytes of the four layers of the epidermis present different expression patterns of keratins. Basal keratinocytes strongly express Keratin 14 and when differentiated, Keratin 10 is increased. To elucidate the keratinocyte state (basal or differentiated), the expression profile of keratins is analyzed by Real Time PCR Arrays, using a 96-well panel for use with SYBR® Green (BioRad) to detect mRNA expression levels of two keratin genes (Keratins 10 and 14) plus three housekeeping genes, and five controls, in Human Epidermal Keratinocytes from adult (HEKa) (Cascade Biologics).
HEKa cells are seeded at 6.0×10^5 cells/well in 6-well plates and incubated in culture medium Epilife with defined Growth Supplement (EDGS) (Cascade Biologics), for 24 hours at 37° C. in a water-saturated atmosphere of 95% air and 5% CO2. After 24 hours, the medium is removed and the cells are incubated with the synthetic peptide candidate at several concentrations in culture medium that contains 1 mM CaCl2) (Sigma) to induce differentiation of keratinocytes. Cells are incubated with 1 mM CaCl2) in culture medium and this provides a positive control of differentiation. Cells are incubated with culture medium only and these provide basal conditions. After 48 hours of treatment at 37° C. in a CO2 incubator, the cells are lysed directly in the wells, and RNA is purified following the protocol described on the RNeasy Mini kit (Qiagen) according to the manufacture's protocol. After RNA elution, quantification and analysis of purity of RNA samples are performed with a biophotometer (Eppendorf). […] SYBR Green binds to double-stranded DNA molecules and emits fluorescence which is quantified; the fluorescence intensity is proportional to the amount of the product in the PCR reaction. […] Fold change relative to the expression of the sample genes and reference genes is calculated using normalized expression (ΔΔ(Ct)) method using CFX Manager Software (BioRad).

Keratin 10 [2] = assay: Keratin expression in reconstructed human epidermal tissue (RHE), immunohistochemistry (Keratin 10); format: cell-based; settings: Keratin 10 immunofluorescence, 10 μg/ml, 48 hours
Description: The human epidermis continuously renews itself by a process of proliferation and differentiation of keratinocytes. Basal epidermal stem cells proliferate and the differentiation process begins above the basal layer, whereby the differentiating keratinocytes slowly move outward from the basal membrane, migrate through the epidermis, and undergo terminal differentiation culminating in fully differentiated dead cells on the surface. The process is a dynamic flux so that surface cells are continuously sloughed and replaced by inner cells differentiating and moving outward. […] To study the ability of the peptides of the invention to recover the basal keratinocyte state, the expression of Keratins 10 and 14 is evaluated by immunohistochemistry in a three-dimensional culture system, Reconstructed Human Epidermal Tissue (RHE), that reproduces in vitro the histological organization of human epidermis in situ. […]
The expression of Keratins 10 and 14 is evaluated by immunohistochemistry with a specific primary antibody and a fluorescently labelled secondary antibody. […] At the end of the incubation, slides are washed with 0.2% solution of Tween 20 in PBS and are incubated with Alexa Fluor® 488 Goat anti-mouse IgG (H+L) secondary antibody (Invitrogen, green fluorescence emission dye) for 1 hour at room temperature in a dark humidified chamber. […]

For “Ac-QEMRMQ-OH [DD14024, Ac-Gln-Glu-Met-Arg-Met-Gln-OH]”, the “Fold induction respect to positive control of differentiation” value (Keratin 10 [1]; 1 mM CaCl2, 0.001 mg/ml) was 0.68 ± 0.04, the “Fold induction respect to positive control of differentiation” value (Keratin 10 [1]; 1 mM CaCl2, 0.005 mg/ml) was 0.60 ± 0.02 and the “Fold induction respect to positive control of differentiation” value (Keratin 10 [1]; 1 mM CaCl2, 0.01 mg/ml) was 0.72 ± 0.06. The “Fold induction respect to basal conditions (%)” value (Keratin 10 [2]) was 28.70%.
